The values below come from publication PMC11283614 (Veterinary World, 2024).

Data set [1] is described as follows: in vitro. The note with it: African green monkey.
Data set [2] concerns VERO cells. As to conditions: incubation 24 h.
In data set [3] the test system is SARS-CoV-2 (delta strain). On the set-up: species or system Syrian hamsters. The note with it: hamster, in vivo.
The conditions of data set [4]: Syrian, in vivo; for Number of dead hamsters after 2 days / Number of dead hamsters after 7 days: hamster.
In data set [5] the test system is SARS-CoV-2 (delta strain). Also noted: species or system Syrian hamsters. As to conditions: hamster, in vivo. This is another data set of the same source.
For data set [6], the system named is SARS-CoV-2. As to the kind of experiment: Suppression of SARS-CoV-2 replication in Vero cells, CPE-based titration of supernatant. Type of data set: cell-based. The note with it: for Time during which viral activity was inhibited: 100 TCD50/mL SARS-CoV-2, compounds added after 1 h virus incubation; for Suppression of viral activity: up to a dilution of 100 TCD50/ml.

Data set [7] concerns SARS-CoV-2. Put plainly: Blood cell populations (blood smears) of infected hamsters. Type of data set: in vivo, Syrian hamsters. The note with it: 7 dpi, therapeutic action.
Data set [8] concerns SARS-CoV-2. Put plainly: Myelogram / bone marrow cell populations of infected hamsters. Type of data set: in vivo, Syrian hamsters.

≈ marks a conversion by molar mass, not a printed value. Where two headings read alike, the source gives them in different places. Marks after values point to notes of the source that are not given here.

In data set [1], `Cc1cc2nnc(SCCOc3ccccc3)n2c(SCc2ccccc2)n1` [6d] had a CC50 of 320 µg/mL (≈ 783 µM). The “Monolayer preservation of VERO cells (toxicity)” value in data set [2] was “-”.

In turn, `CSc1nnc2cc(C)nc(SC)n12` [5a] yielded a CC50 in data set [1] of 240 µg/mL (≈ 1060 µM).

With `COC(=O)CSc1nnc2cc(C)nc(SC)n12` [5c], in data set [1], the CC50 came to 40 µg/mL (≈ 141 µM).

`CSc1nnc2cc(C)nc(SCc3ccccc3)n12` [6a]: the CC50 in data set [1] was found to be 20 µg/mL (≈ 66.1 µM).

In turn, `Cc1cc(C)n(-c2ccc3nnc(SCCOc4ccccc4)n3n2)n1` [10d] yielded a CC50 in data set [1] of 480 µg/mL (≈ 1310 µM). Further, the Spleen smear entry in data set [3] is listed as “proliferation of late erythroblasts”. Moreover, in data set [4] (0.32 mg/kg), the “Number of dead hamsters after 2 days” value is listed as 0 and the “Number of dead hamsters after 7 days” value was 0. In addition, in data set [4] (1.6 mg/kg), the “Number of dead hamsters after 2 days” value is recorded as 0 and the “Number of dead hamsters after 7 days” value was found to be 0. Besides, the “Development of lung injury (micro-CT)” value in data set [5] is given as “inhibited”. In addition, in data set [6], the “Time during which viral activity was inhibited” value lay within 24 to 72 h and the “Suppression of viral activity” value is recorded as “almost completely suppressed”. In addition, in data set [7], the “Blood cells: Band” value amounted to 20.7 ± 7.3%, the “Blood cells: Basophil” value is on record as 0.01 ± 0.005%, the “Blood cells: Eosinophil” value was 0.5 ± 0.01% and the “Blood cells: Lymphoblast” value was determined as 0.9 ± 0.1%. Moreover, in data set [7], the “Blood cells: Lymphocyte” value is 58 ± 6.2%, the “Blood cells: Metamyelocyte” value is given as 3.1 ± 0.4%, the “Blood cells: Monoblast” value is 1.0 ± 0.1% and the “Blood cells: Pathol neutrophil” value was 0.9 ± 0.1%. In addition, in data set [7], the “Blood cells: Segment” value amounted to 13%.

As for `CSc1nnc2ccc(-n3nc(C)cc3C)nn12` [10a], the CC50 in data set [1] was determined as 40 µg/mL (≈ 154 µM).

Regarding `Cc1cc(C)n(-c2ccc3nnc(SCC(N)=O)n3n2)n1` [10b], the CC50 in data set [1] was 240 µg/mL (≈ 791 µM). Moreover, the “Liver pathology (leukocyte / neutrophilic diapedesis)” value in data set [3] was “Absence of neutrophils in liver tissues”. Moreover, in data set [4] (0.16 mg/kg), the “Number of dead hamsters after 2 days” value is 0 and the “Number of dead hamsters after 7 days” value amounted to 0. In addition, in data set [4] (0.8 mg/kg), the “Number of dead hamsters after 2 days” value turned out to be 0; the “Number of dead hamsters after 7 days” value is recorded as 1 ^*; the “Autopsy and histological findings in dead hamster” value was “* Autopsy and histological studies revealed massive hemorrhages in the abdominal cavity and leukopenia. In all investigated preparations except 10b, no lethal effect was observed throughout the experiment. No abnormal appearance or behavior was noted in all investigated groups”. In data set [5], the “Development of lung injury (micro-CT)” value is “inhibited”. For the same compound, in data set [6], the “Time during which viral activity was inhibited” value lay within 24 to 72 h and the “Suppression of viral activity” value is listed as “almost completely suppressed”. Further, in data set [7], the “Blood cells: Band” value is 27 ± 8.6%, the “Blood cells: Destroyed” value is recorded as 0.9 ± 0.02%, the “Blood cells: Eosinophil” value turned out to be 0.1 ± 0.01% and the “Blood cells: Lymphoblast” value is on record as 4.0 ± 0.3%. Moreover, in data set [7], the “Blood cells: Lymphocyte” value stood at 42.3 ± 6.7%, the “Blood cells: Metamyelocyte” value is reported as 1.0 ± 0.1%, the “Blood cells: Monocyte” value amounted to 3.9 ± 0.9% and the “Blood cells: Myeloid” value came out at 1 ± 0.05%. Besides, in data set [7], the “Blood cells: Pathol neutrophil” value was 2.8 ± 0.7% and the “Blood cells: Segment” value turned out to be 20%.

`CSc1nc(C)cc2nnc(SCCOc3ccccc3)n12` [5d] displayed a CC50 in data set [1] of 320 µg/mL (≈ 963 µM). In addition, in data set [3], the “BM section histology (H&E)” value was “preserved structure and cellularity”; the BM smear result is given as “restored erythroid population”. Also, in data set [4] (0.2 mg/kg), the “Number of dead hamsters after 2 days” value worked out at 0 and the “Number of dead hamsters after 7 days” value was 0. Also, in data set [4] (1 mg/kg), the “Number of dead hamsters after 2 days” value is 0 and the “Number of dead hamsters after 7 days” value is listed as 0. In data set [8] (9th day), the “Effect on bone marrow changes seen in the positive control group” value is “does not obstruct the similar bone marrow changes”. In data set [8] (18th day), the “Recovery of bone marrow cell populations compared to the positive control” value was “more rapid recovery of all cell populations”. Moreover, in data set [8] (infected hamsters, 9 dpi), the “Myelogram: Band” value is listed as 26.1 ± 4.4%, the “Myelogram: Basophil” value was determined as 0.1 ± 0.04%, the “Myelogram: Basophil erythroblast” value is reported as 4.6 ± 0.9% and the “Myelogram: Destroyed” value was found to be 3.2 ± 0.3%. Besides, in data set [8] (infected hamsters, 9 dpi), the “Myelogram: Eosinophil” value is reported as 3.2 ± 0.4%, the “Myelogram: Limph.patol.” value came out at 1.1 ± 0.4%, the “Myelogram: Lymphoblast” value was found to be 3.5 ± 0.6% and the “Myelogram: Lymphocyte” value is reported as 8.9 ± 1.2%. Moreover, in data set [8] (infected hamsters, 9 dpi), the “Myelogram: Macroph. Island” value worked out at 1.6 ± 0.03%, the “Myelogram: Macroph. Resident” value is 1.6 ± 0.05%, the “Myelogram: Megakaryoblast” value stood at 1.6 ± 0.02% and the “Myelogram: Megakaryocyte azurophil” value was found to be 1.6 ± 0.1%. Further, in data set [8] (infected hamsters, 9 dpi), the “Myelogram: Megakaryocyte basophil” value came out at 1.6 ± 0.1%, the “Myelogram: Metamyelocyte” value was 5.2 ± 1.0%, the “Myelogram: Mitos” value is listed as 1.6 ± 0.02% and the “Myelogram: Monoblast” value worked out at 2.9 ± 0.7%. Also, in data set [8] (infected hamsters, 9 dpi), the “Myelogram: Monocyte” value worked out at 3.8 ± 0.8%, the “Myelogram: Myeloid” value stood at 3.9 ± 0.5%, the “Myelogram: Ortochrom erythroblast” value amounted to 8.8 ± 0.9% and the “Myelogram: Pathol neutrophil” value was found to be 2.1 ± 0.5%. In data set [8] (infected hamsters, 9 dpi), the “Myelogram: Polychromatophil erythroblast” value amounted to 5.9 ± 2.1%, the “Myelogram: Proerythroblast” value stood at 3.1 ± 0.5% and the “Myelogram: Segment” value worked out at 3.7 ± 0.5%. Besides, in data set [8] (infected hamsters, 18 dpi), the “Myelogram: Band” value worked out at 15.6 ± 3.1 %, the “Myelogram: Basophil” value was found to be 0.01 ± 0.01%, the “Myelogram: Destroyed” value is 0.1 ± 0.01% and the “Myelogram: Eosinophil” value amounted to 0.2 ± 0.01%. Besides, in data set [8] (infected hamsters, 18 dpi), the “Myelogram: Limph.patol.” value was 0.1 ± 0.04 %, the “Myelogram: Lymphoblast” value was 2.3 ± 0.5%, the “Myelogram: Lymphocyte” value came out at 5.2 ± 0.8% and the “Myelogram: Macroph. Island” value stood at 0.1 ± 0.01%. Also, in data set [8] (infected hamsters, 18 dpi), the “Myelogram: Macroph. Resident” value was determined as 0.1 ± 0.01%, the “Myelogram: Megakaryoblast” value was determined as 0.03 ± 0.02%, the “Myelogram: Megakaryocyte azurophil” value amounted to 0.01 ± 0.01% and the “Myelogram: Megakaryocyte basophil” value came out at 0.01 ± 0.01%. Besides, in data set [8] (infected hamsters, 18 dpi), the “Myelogram: Metamyelocyte” value is recorded as 20.1 ± 4.3%, the “Myelogram: Mitos” value is reported as 0.01 ± 0.01%, the “Myelogram: Monoblast” value is reported as 1.0 ± 0.02% and the “Myelogram: Monocyte” value is given as 1.5 ± 0.4%. Moreover, in data set [8] (infected hamsters, 18 dpi), the “Myelogram: Myeloid” value was determined as 14.3 ± 2.7%, the “Myelogram: Pathol neutrophil” value is given as 0.1 ± 0.01 %, the “Myelogram: Polychromatophil erythroblast” value stood at 17.9 ± 2.3 % and the “Myelogram: Segment” value worked out at 3.3 ± 0.3 %. For the same compound, the “Development of lung injury (micro-CT)” value in data set [5] is “inhibited”. Further, in data set [6], the “Time during which viral activity was inhibited” value lay within 24 to 72 h and the “Suppression of viral activity” value is given as “almost completely suppressed”. In data set [7], the “Blood cells: Band” value worked out at 19 ± 4.8%, the “Blood cells: Basophil” value is listed as 0.01%, the “Blood cells: Destroyed” value was 1.0% and the “Blood cells: Eosinophil” value was found to be 0.1 ± 0.05%. Besides, in data set [7], the “Blood cells: Lymphoblast” value was determined as 0.9 ± 0.2%, the “Blood cells: Lymphocyte” value was 65 ± 9.3%, the “Blood cells: Metamyelocyte” value is given as 2 ± 0.5% and the “Blood cells: Monocyte” value was 2.1 ± 0.3%. In addition, in data set [7], the “Blood cells: Myeloid” value was found to be 1.1 ± 0.1% and the “Blood cells: Segment” value is reported as 8.8%.

`Cc1cc(C)n(-c2ccc3nnc(C)n3n2)n1` [compound 8] registered a CC50 in data set [1] of 480 µg/mL (≈ 2100 µM). In data set [3], the “LN section histology (H&E)” value was “preserved structure and cellularity”; the “Lung pathology (diffuse lymphocytic-macrophage infiltrates)” value is “Mild pathological manifestations”. Besides, in data set [4] (0.3 mg/kg), the “Number of dead hamsters after 2 days” value turned out to be 0 and the “Number of dead hamsters after 7 days” value stood at 0. In addition, in data set [4] (1.5 mg/kg), the “Number of dead hamsters after 2 days” value worked out at 0 and the “Number of dead hamsters after 7 days” value is listed as 0. The “Development of lung injury (micro-CT)” value in data set [5] is “inhibited”. In data set [6], the “Time during which viral activity was inhibited” value is 24 to 72 h and the “Suppression of viral activity” value is reported as “almost completely suppressed”. In data set [7], the “Blood cells: Band” value is 10.0 ± 2.7%, the “Blood cells: Destroyed” value was determined as 1.9 ± 0.3%, the “Blood cells: Eosinophil” value was determined as 0.5 ± 0.1% and the “Blood cells: Lymphoblast” value was 1.1 ± 0.1%. Further, in data set [7], the “Blood cells: Lymphocyte” value came out at 77.2 ± 8.1%, the “Blood cells: Metamyelocyte” value amounted to 2.0 ± 0.6%, the “Blood cells: Monoblast” value is 2.9 ± 0.5% and the “Blood cells: Monocyte” value is 1.2 ± 0.1%. Further, the “Blood cells: Segment” value in data set [7] is on record as 4%.
